According to patent US9708318B2, “Bicyclic heterocycles as FGFR4 inhibitors” (Incyte Corporation, priority 2015, dated 2017):
Read-outs that look alike come from different tables or passages of the source.

Tests used:
FGFR2 = FGFR2 (Homo sapiens (Human), UniProt P21802); test: FGFR Enzymatic Assay (FRET peptide phosphorylation), FGFR2; assay type: biochemical
Procedure: (§1) The inhibitor potency of the exemplified compounds was measured in an enzyme assay that measures peptide phosphorylation using FRET measurements to detect product formation. Inhibitors were serially diluted in DMSO and a volume of 0.5 μL was transferred to the wells of a 384-well plate.
(§2) The enzymes were purchased from Millipore or Invitrogen.
(§3) GraphPad prism3 was used to analyze the data.

FGFR3 enzyme = FGFR3 enzyme (Homo sapiens (Human), UniProt P22607); test: FGFR Enzymatic Assay (FRET peptide phosphorylation), FGFR3; assay type: biochemical; details: for FGFR1/FGFR3 IC50 ratio / FGFR4/FGFR3 IC50 ratio: FGFR3 selectivity; for IC50: read-out: FGFR3 IC50
Procedure: as §1, §3

FGFR4 = FGFR4 (Homo sapiens (Human), UniProt P22455); test: FGFR Enzymatic Assay (FRET peptide phosphorylation), FGFR4; assay type: biochemical; details: for FGFR1/FGFR4 IC50 ratio / FGFR2/FGFR4 IC50 ratio / FGFR3/FGFR4 IC50 ratio: FGFR4 selectivity
Procedure: as §1, §2, §3

FGFR1 = FGFR1 (Homo sapiens (Human), UniProt P11362); test: FGFR Enzymatic Assay (FRET peptide phosphorylation), FGFR1
[1] = FGFR1 IC50 (nM), pre-incubated for 4 hours
[2] = pre-incubated for 5 to 10 minutes
[3] = FGFR1 IC50 (nM), pre-incubated for 5 to 10 minutes
[4] = read-out: FGFR1 IC50, pre-incubated for 4 hours

Chain of FGFR1 (P11362 22-822): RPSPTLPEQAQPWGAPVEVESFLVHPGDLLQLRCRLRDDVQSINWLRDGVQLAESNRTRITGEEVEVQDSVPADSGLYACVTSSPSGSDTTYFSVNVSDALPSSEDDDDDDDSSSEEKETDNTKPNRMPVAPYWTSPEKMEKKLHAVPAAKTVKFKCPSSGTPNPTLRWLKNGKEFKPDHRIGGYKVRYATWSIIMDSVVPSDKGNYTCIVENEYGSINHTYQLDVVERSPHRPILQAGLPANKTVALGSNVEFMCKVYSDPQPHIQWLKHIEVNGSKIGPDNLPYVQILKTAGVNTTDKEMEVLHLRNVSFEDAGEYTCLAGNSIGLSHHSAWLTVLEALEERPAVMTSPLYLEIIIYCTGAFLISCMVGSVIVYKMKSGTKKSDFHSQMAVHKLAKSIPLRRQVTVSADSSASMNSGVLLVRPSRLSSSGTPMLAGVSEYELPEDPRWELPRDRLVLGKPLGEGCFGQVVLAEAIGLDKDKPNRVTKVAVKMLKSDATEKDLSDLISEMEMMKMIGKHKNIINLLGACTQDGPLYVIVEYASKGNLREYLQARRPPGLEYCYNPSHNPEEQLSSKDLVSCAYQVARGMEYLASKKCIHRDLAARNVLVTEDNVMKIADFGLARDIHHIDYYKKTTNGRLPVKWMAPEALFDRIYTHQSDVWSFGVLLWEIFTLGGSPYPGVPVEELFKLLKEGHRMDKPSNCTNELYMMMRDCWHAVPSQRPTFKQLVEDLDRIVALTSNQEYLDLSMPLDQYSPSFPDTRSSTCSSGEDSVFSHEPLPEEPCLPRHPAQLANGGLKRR
Chain of FGFR2 (P21802 22-821): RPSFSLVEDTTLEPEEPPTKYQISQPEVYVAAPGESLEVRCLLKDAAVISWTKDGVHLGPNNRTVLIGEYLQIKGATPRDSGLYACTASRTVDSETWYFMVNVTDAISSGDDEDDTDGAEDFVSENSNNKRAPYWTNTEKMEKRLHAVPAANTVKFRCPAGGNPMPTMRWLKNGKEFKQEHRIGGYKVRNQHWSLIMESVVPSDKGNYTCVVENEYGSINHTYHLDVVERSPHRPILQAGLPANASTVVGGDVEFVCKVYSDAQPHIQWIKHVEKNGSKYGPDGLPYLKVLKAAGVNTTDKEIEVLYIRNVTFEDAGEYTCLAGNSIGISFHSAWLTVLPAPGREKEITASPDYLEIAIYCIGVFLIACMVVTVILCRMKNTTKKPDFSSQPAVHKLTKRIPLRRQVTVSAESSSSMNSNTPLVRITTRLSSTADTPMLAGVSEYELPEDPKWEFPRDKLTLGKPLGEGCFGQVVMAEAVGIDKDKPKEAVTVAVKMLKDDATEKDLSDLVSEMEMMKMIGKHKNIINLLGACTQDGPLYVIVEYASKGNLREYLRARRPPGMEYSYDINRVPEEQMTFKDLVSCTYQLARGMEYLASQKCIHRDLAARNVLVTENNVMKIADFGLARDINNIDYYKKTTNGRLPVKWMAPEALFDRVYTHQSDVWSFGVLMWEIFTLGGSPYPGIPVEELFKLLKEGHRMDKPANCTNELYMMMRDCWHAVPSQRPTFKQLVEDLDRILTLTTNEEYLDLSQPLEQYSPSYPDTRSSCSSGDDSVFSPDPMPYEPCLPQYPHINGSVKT
Chain of FGFR3 enzyme (P22607 23-806): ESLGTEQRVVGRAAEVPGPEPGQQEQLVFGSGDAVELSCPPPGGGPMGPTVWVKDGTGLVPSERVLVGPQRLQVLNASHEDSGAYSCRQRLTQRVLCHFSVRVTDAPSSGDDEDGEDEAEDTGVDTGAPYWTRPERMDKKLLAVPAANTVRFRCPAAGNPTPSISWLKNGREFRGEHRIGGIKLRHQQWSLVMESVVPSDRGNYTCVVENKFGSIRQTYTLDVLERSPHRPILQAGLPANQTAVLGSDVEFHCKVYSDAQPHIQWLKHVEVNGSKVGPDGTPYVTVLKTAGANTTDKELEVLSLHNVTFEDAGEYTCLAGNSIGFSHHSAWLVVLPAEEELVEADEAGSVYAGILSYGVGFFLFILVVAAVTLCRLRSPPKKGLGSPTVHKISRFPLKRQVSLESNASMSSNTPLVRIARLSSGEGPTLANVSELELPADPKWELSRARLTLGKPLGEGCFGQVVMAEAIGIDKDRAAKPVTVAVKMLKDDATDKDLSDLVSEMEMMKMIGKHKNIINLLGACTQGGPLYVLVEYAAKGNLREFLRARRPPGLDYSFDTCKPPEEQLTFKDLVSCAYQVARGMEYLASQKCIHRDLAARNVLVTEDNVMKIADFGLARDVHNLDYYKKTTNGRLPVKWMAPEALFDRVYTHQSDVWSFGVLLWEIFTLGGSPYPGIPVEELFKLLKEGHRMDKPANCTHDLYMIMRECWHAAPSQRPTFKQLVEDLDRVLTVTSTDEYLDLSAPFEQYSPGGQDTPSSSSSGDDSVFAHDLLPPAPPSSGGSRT
Chain of FGFR4 (P22455 22-802): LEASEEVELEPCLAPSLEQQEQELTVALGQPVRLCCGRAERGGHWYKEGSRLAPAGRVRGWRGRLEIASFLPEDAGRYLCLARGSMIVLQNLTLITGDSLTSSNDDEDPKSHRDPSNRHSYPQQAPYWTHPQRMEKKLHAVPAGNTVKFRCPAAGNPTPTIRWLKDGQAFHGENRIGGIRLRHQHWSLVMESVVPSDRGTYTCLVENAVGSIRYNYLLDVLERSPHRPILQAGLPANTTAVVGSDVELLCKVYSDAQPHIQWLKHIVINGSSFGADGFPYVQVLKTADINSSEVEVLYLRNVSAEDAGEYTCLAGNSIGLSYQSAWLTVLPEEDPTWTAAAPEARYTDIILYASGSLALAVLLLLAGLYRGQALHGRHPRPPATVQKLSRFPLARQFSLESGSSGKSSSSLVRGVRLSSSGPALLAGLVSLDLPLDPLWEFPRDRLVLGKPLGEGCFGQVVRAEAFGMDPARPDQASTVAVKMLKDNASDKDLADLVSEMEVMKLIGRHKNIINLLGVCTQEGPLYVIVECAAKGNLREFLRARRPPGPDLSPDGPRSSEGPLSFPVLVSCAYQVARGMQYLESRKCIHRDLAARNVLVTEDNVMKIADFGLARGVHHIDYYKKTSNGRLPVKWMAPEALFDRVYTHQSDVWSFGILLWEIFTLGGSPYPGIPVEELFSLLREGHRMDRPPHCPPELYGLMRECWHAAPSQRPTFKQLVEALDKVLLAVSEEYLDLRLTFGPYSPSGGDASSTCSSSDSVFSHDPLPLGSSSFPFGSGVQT

Row | SMILES | IC50 (FGFR2; pre-incubated for 4 hours) [µM] | FGFR1/FGFR3 IC50 ratio (FGFR3 enzyme; pre-incubated for 4 hours) | FGFR4/FGFR3 IC50 ratio (FGFR3 enzyme; pre-incubated for 4 hours) | IC50 (FGFR3 enzyme; pre-incubated for 4 hours) [µM] | IC50 (FGFR4; pre-incubated for 4 hours) [µM] | IC50 (FGFR1; [1]) [nM] | IC50 (FGFR2; [2]) [µM] | IC50 (FGFR3 enzyme; [2]) [µM] | IC50 (FGFR4; [2]) [µM] | IC50 (FGFR1; [3]) [nM] | IC50 (FGFR1; [4]) [nM] | FGFR1/FGFR4 IC50 ratio (FGFR4; [2]) | FGFR2/FGFR4 IC50 ratio (FGFR4; [2]) | FGFR3/FGFR4 IC50 ratio (FGFR4; [2]) | FGFR1/FGFR4 IC50 ratio (FGFR4; pre-incubated for 4 hours) | FGFR2/FGFR4 IC50 ratio (FGFR4; pre-incubated for 4 hours) | FGFR3/FGFR4 IC50 ratio (FGFR4; pre-incubated for 4 hours) | IC50 (FGFR1; read-out: FGFR1 IC50, pre-incubated for 5 to 10 minutes) [nM]
1 | COc1cccc(N2C(=O)N(c3c(F)c(OC)cc(OC)c3F)Cc3cnc(-c4cn(C)nc4C)cc32)c1 [Example 109, 3-(2,6-difluoro-3,5-dimethoxyphenyl)-7-(1,3-dimethyl-1H-pyrazol-4-yl)-1-(3-methoxyphenyl)-3,4-dihydropyrido[4,3-d]pyrimidin-2(1H)-one] | < 0.01 | >3 | >10 | < 0.01 | 0.03 to 0.2 | 10 to 30 | – | – | – | – | – | – | – | – | – | – | – | –
2 | COc1cc(OC)c(F)c(N2Cc3cnc(-c4cn(C)nc4C)cc3N(Cc3cc(C(C)C)on3)C2=O)c1F [Example 93, 3-(2,6-difluoro-3,5-dimethoxyphenyl)-7-(1,3-dimethyl-1H-pyrazol-4-yl)-1-((5-isopropylisoxazol-3-yl)methyl)-3,4-dihydropyrido[4,3-d]pyrimidin-2(1H)-one] | < 0.01 | >5 | >5 | < 0.01 | 0.03 to 0.2 | 30 to 200 | – | – | – | – | – | – | – | – | – | – | – | –
3 | CCn1cc(N2C(=O)N(c3c(F)c(OC)cc(OC)c3F)Cc3cnc(-c4cn(C)nc4C)cc32)cn1 [Example 131, 3-(2,6-difluoro-3,5-dimethoxyphenyl)-7-(1,3-dimethyl-1H-pyrazol-4-yl)-1-(1-ethyl-1H-pyrazol-4-yl)-3,4-dihydropyrido[4,3-d]pyrimidin-2(1H)-one] | 0.01 to 0.03 | >3 | >10 | 0.01 to 0.03 | > 0.2 | 30 to 200 | – | – | – | – | – | – | – | – | – | – | – | –
4 | COc1cc(OC)c(F)c(N2Cc3cnc(-c4cn(C)nc4C)cc3N(c3ccnnc3)C2=O)c1F [Example 57, 3-(2,6-difluoro-3,5-dimethoxyphenyl)-7-(1,3-dimethyl-1H-pyrazol-4-yl)-1-(pyridazin-4-yl)-3,4-dihydropyrido[4,3-d]pyrimidin-2(1H)-one] | 0.03 to 0.2 | >10 | >10 | 0.01 to 0.03 | 0.03 to 0.2 | – | 0.03 to 0.2 | 0.01 to 0.03 | > 0.2 | 30 to 200 | > 200 | – | – | – | – | – | – | –
5 | COc1cc(OC)c(F)c(N2Cc3cnc(-c4cncc(N)c4)cc3C3(CC3)C2=O)c1F [Example 4, 6′-(5-aminopyridin-3-yl)-2′-(2,6-difluoro-3,5-dimethoxyphenyl)-1′H-spiro[cyclopropane-1,4′-[2,7]naphthyridin]-3′(2′H)-one] | 0.03 to 0.2 | >1 | – | 0.03 to 0.2 | < 0.01 | 30 to 200 | 0.01 to 0.03 | 0.01 to 0.03 | < 0.01 | 30 to 200 | – | >10 | >10 | >5 | >25 | >10 | >10 | –
6 | COc1cc(OC)c(F)c(N2Cc3cnc(-c4cn(C)nc4C)cc3N(Cc3cccnn3)C2=O)c1F [Example 88, 3-(2,6-difluoro-3,5-dimethoxyphenyl)-7-(1,3-dimethyl-1H-pyrazol-4-yl)-1-(pyridazin-3-ylmethyl)-3,4-dihydropyrido[4,3-d]pyrimidin-2(1H)-one] | < 0.01 | >5 | >10 | < 0.01 | < 0.01 | – | – | – | – | – | < 10 | – | – | – | – | – | – | –
7 | COc1cc(OC)c(F)c(N2Cc3cnc(-c4cn(C)nc4C)cc3N(c3ccc(-c4nnc(C)o4)cc3)C2=O)c1F [Example 115, 3-(2,6-difluoro-3,5-dimethoxyphenyl)-7-(1,3-dimethyl-1H-pyrazol-4-yl)-1-(4-(5-methyl-1,3,4-oxadiazol-2-yl)phenyl)-3,4-dihydropyrido[4,3-d]pyrimidin-2(1H)-one] | < 0.01 | >3 | >5 | < 0.01 | 0.03 to 0.2 | 30 to 200 | – | – | – | – | – | – | – | – | – | – | – | –
8 | CCOc1cc(CN2C(=O)N(c3c(F)c(OC)cc(OC)c3F)Cc3cnc(-c4cn(C)nc4C)cc32)ccn1 [Example 116, 3-(2,6-difluoro-3,5-dimethoxyphenyl)-7-(1,3-dimethyl-1H-pyrazol-4-yl)-1-((2-ethoxypyridin-4-yl)methyl)-3,4-dihydropyrido[4,3-d]pyrimidin-2(1H)-one] | – | – | – | – | – | – | < 0.01 | < 0.01 | 0.01 to 0.03 | 10 to 30 | – | – | – | – | – | – | – | –
9 | COc1cc(OC)c(F)c(N2Cc3cnc(-c4cnn(C5CCN(S(C)(=O)=O)C5)c4)cc3C3(CC3)C2=O)c1F (centres unmarked) [Example 147, 2′-(2,6-difluoro-3,5-dimethoxyphenyl)-6′-(1-(1-(methylsulfonyl)pyrrolidin-3-yl)-1H-pyrazol-4-yl)-1′H-spiro[cyclopropane-1,4′-[2,7]naphthyridin]-3′(2′H)-one] | < 0.01 | >10 | >3 | < 0.01 | < 0.01 | 10 to 30 | – | – | – | – | – | – | – | – | – | – | – | –

Continued, values first:

Row | IC50 (FGFR2; pre-incubated for 4 hours) [µM] | FGFR1/FGFR3 IC50 ratio (FGFR3 enzyme; pre-incubated for 4 hours) | FGFR4/FGFR3 IC50 ratio (FGFR3 enzyme; pre-incubated for 4 hours) | IC50 (FGFR3 enzyme; pre-incubated for 4 hours) [µM] | IC50 (FGFR4; pre-incubated for 4 hours) [µM] | IC50 (FGFR1; [1]) [nM] | IC50 (FGFR2; [2]) [µM] | IC50 (FGFR3 enzyme; [2]) [µM] | IC50 (FGFR4; [2]) [µM] | IC50 (FGFR1; [3]) [nM] | IC50 (FGFR1; [4]) [nM] | FGFR1/FGFR4 IC50 ratio (FGFR4; [2]) | FGFR2/FGFR4 IC50 ratio (FGFR4; [2]) | FGFR3/FGFR4 IC50 ratio (FGFR4; [2]) | FGFR1/FGFR4 IC50 ratio (FGFR4; pre-incubated for 4 hours) | FGFR2/FGFR4 IC50 ratio (FGFR4; pre-incubated for 4 hours) | FGFR3/FGFR4 IC50 ratio (FGFR4; pre-incubated for 4 hours) | IC50 (FGFR1; read-out: FGFR1 IC50, pre-incubated for 5 to 10 minutes) [nM] | SMILES
10 | 0.01 to 0.03 | >3 | >3 | 0.01 to 0.03 | 0.03 to 0.2 | 30 to 200 | – | – | – | – | – | – | – | – | – | – | – | – | COc1cc(OC)c(F)c(N2Cc3cnc(-c4cn(CCN(C)C)nc4C)cc3C3(CC3)C2=O)c1F [Example 164, 2′-(2,6-difluoro-3,5-dimethoxyphenyl)-6′-(1-(2-(dimethylamino)ethyl)-3-methyl-1H-pyrazol-4-yl)-1′H-spiro[cyclopropane-1,4′-[2,7]naphthyridin]-3′(2′H)-one]
11 | < 0.01 | >3 | >3 | < 0.01 | 0.01 to 0.03 | 10 to 30 | – | – | – | – | – | – | – | – | – | – | – | – | COc1cc(OC)c(F)c(N2Cc3cnc(-c4cn(CCC5CCNCC5)nc4C)cc3C3(CC3)C2=O)c1F [Example 165, 2′-(2,6-difluoro-3,5-dimethoxyphenyl)-6′-(3-methyl-1-(2-(piperidin-4-yl)ethyl)-1H-pyrazol-4-yl)-1′H-spiro[cyclopropane-1,4′-[2,7]naphthyridin]-3′(2′H)-one]
12 | > 0.2 | >5 | – | 0.03 to 0.2 | 0.01 to 0.03 | – | > 0.2 | 0.03 to 0.2 | 0.01 to 0.03 | – | > 200 | >50 | >10 | >10 | >50 | >10 | >10 | > 200 | COc1cc(OC)c(F)c(N2Cc3cnc(-c4cncc(C#N)c4)cc3C3(CC3)C2=O)c1F [Example 8, 5-(2′-(2,6-difluoro-3,5-dimethoxyphenyl)-3′-oxo-2′,3′-dihydro-1′H-spiro[cyclopropane-1,4′-[2,7]naphthyridine]-6′-yl)nicotinonitrile]
13 | < 0.01 | >5 | >5 | 0.01 to 0.03 | 0.03 to 0.2 | 30 to 200 | – | – | – | – | – | – | – | – | – | – | – | – | COc1cc(OC)c(F)c(N2Cc3cnc(-c4cn(C)nc4C)cc3N(Cc3cnn(CC#N)c3)C2=O)c1F [Example 125, 2-(4-((3-(2,6-difluoro-3,5-dimethoxyphenyl)-7-(1,3-dimethyl-1H-pyrazol-4-yl)-2-oxo-3,4-dihydropyrido[4,3-d]pyrimidin-1(2H)-yl)methyl)-1H-pyrazol-1-yl)acetonitrile]
14 | 0.01 to 0.03 | >1 | – | 0.01 to 0.03 | < 0.01 | 30 to 200 | 0.01 to 0.03 | 0.01 to 0.03 | < 0.01 | 30 to 200 | – | >25 | >10 | >10 | >25 | >25 | >10 | – | COc1cncc(-c2cc3c(cn2)CN(c2c(F)c(OC)cc(OC)c2F)C(=O)C32CC2)c1 [Example 10, 2′-(2,6-difluoro-3,5-dimethoxyphenyl)-6′-(5-methoxypyridin-3-yl)-1′H-spiro[cyclopropane-1,4′-[2,7]naphthyridin]-3′(2′H)-one]
15 | < 0.01 | >3 | >3 | < 0.01 | 0.01 to 0.03 | 10 to 30 | – | – | – | – | – | – | – | – | – | – | – | – | COc1cc(OC)c(F)c(N2Cc3cnc(-c4cnn(CC5CN(S(C)(=O)=O)C5)c4)cc3C3(CC3)C2=O)c1F [Example 166, 2′-(2,6-difluoro-3,5-dimethoxyphenyl)-6′-(1-((1-(methylsulfonyl)azetidin-3-yl)methyl)-1H-pyrazol-4-yl)-1′H-spiro[cyclopropane-1,4′-[2,7]naphthyridin]-3′(2′H)-one]
16 | 0.01 to 0.03 | >5 | >1 | < 0.01 | 0.01 to 0.03 | 30 to 200 | – | – | – | – | – | – | – | – | – | – | – | – | COc1cc(OC)c(F)c(N2Cc3cnc(-c4cn(CCC#N)nc4C)cc3C3(CC3)C2=O)c1F [Example 156, 3-(4-(2′-(2,6-difluoro-3,5-dimethoxyphenyl)-3′-oxo-2′,3′-dihydro-1′H-spiro[cyclopropane-1,4,-[2,7]naphthyridine]-6′-yl)-3-methyl-1H-pyrazol-1-yl)propanenitrile]
